Assay results taken from the PolyMetriX glass transition set.
± gives the standard deviation of the reports.

glass transition temperature [°C] | SMILES
40.00 | *CC(*)(C)C(=O)OCCCCCCOc1ccc(C(=O)Oc2ccc(/N=N/c3ccc(C)cc3)c3ccccc23)cc1 (repeat unit)
-64.21 | *O[Si](*)(C)CCCOCCOCCOCCOC (repeat unit)
281.50 | *c1ccc(C(=O)Nc2ccc(Oc3ccc(Oc4ccc(NC(=O)c5ccc(Oc6ccc(-c7nn(*)c(=O)c8ccccc78)c7ccccc67)cc5)cc4C(F)(F)F)cc3)c(C(F)(F)F)c2)cc1 (repeat unit)
-12.60 | *O[Si](C)(C)C#C[Si](C)(C)C#C[Si](C)(C)C#C[Si](C)(C)C#C[Si](C)(C)C#C[Si](C)(C)C#C[Si](*)(C)C (repeat unit)
232.30 | *c1ccc(Oc2ccc(Oc3ccc(N4C(=O)c5ccc(Oc6ccc7c(c6)C(=O)N(*)C7=O)cc5C4=O)cc3C(F)(F)F)cc2)cc1 (repeat unit)
225.00 | *c1ccc(NC(=O)c2ccc(OCCOc3ccc(C(=O)Nc4ccc5[nH]c(*)nc5c4)cc3)cc2)cc1 (repeat unit)
378.00 | *Nc1cccc2c(NC(=O)c3ccc(NC(=O)c4ccc([Si](C)(C)c5ccc(C(=O)Nc6ccc(C(*)=O)cc6)cc5)cc4)cc3)cccc12 (repeat unit)
119.40 | *CCCCCCN(CC(F)(F)C(F)(F)C(F)(F)C(F)(F)C(F)(F)C(F)(F)C(F)(F)F)C(=O)CCCCC(=O)N(*)CC(F)(F)C(F)(F)C(F)(F)C(F)(F)C(F)(F)C(F)(F)C(F)(F)F (repeat unit)
242.00 | *CC(=O)Nc1ccc(Oc2ccc(Oc3ccc(NC(=O)CN4C(=O)c5ccc(C(c6ccc7c(c6)C(=O)N(*)C7=O)(C(F)(F)F)C(F)(F)F)cc5C4=O)cc3)cc2)cc1 (repeat unit)
312.00 | *c1ccc(Oc2ccc(C(=O)c3ccc(Oc4ccc(-c5nnc(*)c6c(-c7ccccc7)c(-c7ccc8ccccc8c7)c(-c7ccc8ccccc8c7)c(-c7ccccc7)c56)cc4)cc3)cc2)cc1 (repeat unit)
-10.00 | *OCC(F)(F)C(F)(F)C(F)(F)COc1nc(F)c(F)c(OCC(F)(F)C(F)(F)C(F)(F)COc2c(F)c(*)nc(F)c2F)c1F (repeat unit)
120.00 | *CC(O)COc1ccc(C2(C)CC(C)(C)c3cc(O*)ccc32)cc1 (repeat unit)
123.00 | *CCN(*)C(=O)C12CC3CC(CC(C3)C1)C2 (repeat unit)
266.00 | *c1ccc2c(c1)C(=O)N(c1cccc(C(=O)Nc3ccc(Oc4ccc(C(c5ccc(Oc6ccc(NC(=O)c7cccc(N8C(=O)c9ccc(C(*)(C(F)(F)F)C(F)(F)F)cc9C8=O)c7)cc6)cc5)(C(F)(F)F)C(F)(F)F)cc4)cc3)c1)C2=O (repeat unit)
200.00 | *c1cccc(-n2nc(-c3ccccc3)c3cc(Oc4ccc(C(C)(C)c5ccc(Oc6ccc7c(-c8ccccc8)nn(*)c(=O)c7c6)cc5)cc4)ccc3c2=O)c1C#N (repeat unit)
42.00 | *CC(*)c1cc(C(=O)OCCCCCCCCCCCC)ccc1-c1ccc(OCCCCCCCC)cc1 (repeat unit)
263.00 | *c1ccc(C(=O)c2ccc(Oc3ccc(-c4nn(*)c(=O)c5ccccc45)cc3)cc2)cc1 (repeat unit)
456.00 | *c1ccc(-c2cc(C(C)(C)C)c(Oc3ccc(N4C(=O)c5ccc6c7c(ccc(c57)C4=O)C(=O)N(*)C6=O)cc3C(F)(F)F)c(C(C)(C)C)c2)cc1 (repeat unit)
14.00 | *CCSCc1ccc(Cc2ccc(CSCCOC(=O)CSCc3ccc(Cc4ccc(CSCC(=O)O*)cc4)cc3)cc2)cc1 (repeat unit)
213.00 | *CC1CCCC(CN2C(=O)c3ccc(C(=O)c4ccc5c(c4)C(=O)N(*)C5=O)cc3C2=O)C1 (repeat unit)
46.90 | *NC(CCC(=O)OCc1ccc(F)cc1)C(*)=O (repeat unit)
175.00 | *Oc1ccc(/N=N/c2ccc(Oc3ccc(C(C)(C)c4ccc(*)cc4)cc3)cc2)cc1 (repeat unit)
64.50 | *Nc1ccc(*)cc1OCCCCCCCCCCOc1ccc(C2CCC(CCCCC)CC2)cc1 (repeat unit)
386.00 | *Nc1ccc(-c2ccc(NC(=O)c3cccc(C(*)=O)c3)c(O)c2)cc1O (repeat unit)
292.00 | *c1ccc(Oc2ccc(S(=O)(=O)c3ccc(Oc4ccc(-c5nc(-c6cccc(-c7nc(*)c(-c8ccccc8)[nH]7)c6)[nH]c5-c5ccccc5)cc4)cc3)cc2)cc1 (repeat unit)
135.00 | *Oc1ccc(C(c2ccc(OC(*)=S)cc2)C(C)C)cc1 (repeat unit)

glass transition temperature [°C] | SMILES
125.00 | *Oc1ccc(C(=O)c2ccc(OC(=O)OC3C(C)(C)C(OC(*)=O)C3(C)C)cc2)cc1 (repeat unit)
259.00 | *c1ccc(-c2ccc(-n3c(-c4ccc(Oc5ccc(C(=O)c6ccc(C(=O)c7ccc(Oc8ccc(-c9nc%10ccccc%10n9*)cc8)cc7)cc6)cc5)cc4)nc4ccccc43)cc2)cc1 (repeat unit)
100.00 | *O[Si](C)(C)c1cccc2c1ccc1c([Si](*)(C)C)cccc12 (repeat unit)
95.00 | *CCCCCOc1ccc(OCCCCCc2nnc(-c3ccc(-c4nnc(*)o4)cc3)o2)c(C)c1 (repeat unit)
370.00 | *Nc1ccc(C2(c3ccc(NC(=O)c4cc(NC(=O)C56CC7CC(CC(C7)C5)C6)cc(C(*)=O)c4)cc3)c3ccccc3-c3ccccc32)cc1 (repeat unit)
253.00 | *CC(*)n1c2ccccc2c2cc3ccccc3cc21 (repeat unit)
285.00 | *C(=O)Nc1ccc(Oc2ccc(Oc3ccc(NC(=O)c4ccc5c(c4)C(=O)N(c4ccc(Oc6cccc7c(Oc8ccc(N9C(=O)c%10ccc(*)cc%10C9=O)cc8)cccc67)cc4)C5=O)cc3)cc2)cc1 (repeat unit)
-76.00 | */C=C/CCCCCCCCCC(CCCCCCCCC*)COCCOCCOCCOCCOCCCCCC (repeat unit)
150.00 | *Cc1cccc(CNC(=O)CCC2(CCC(=O)N*)c3ccccc3-c3ccccc32)c1 (repeat unit)
275.00 | *C(=O)c1ccc2c(c1)C(=O)N(CC1(C)CC(N3C(=O)c4ccc(*)cc4C3=O)CC(C)(C)C1)C2=O (repeat unit)
179.00 | *C1C(=O)N(c2cc(Br)c(O[Si](c3ccccc3)(c3ccccc3)c3ccccc3)c(Br)c2)C(=O)C1* (repeat unit)
247.00 | *c1ccc(Oc2ccc(S(=O)(=O)c3ccc(Oc4ccc(C5(*)OC(=O)c6ccccc65)cc4)cc3)cc2)cc1 (repeat unit)
40.00 | *Oc1ccc(CC(NC(=O)CCc2ccc(OC(=O)COCC(*)=O)cc2)C(=O)OCCCCCCCC)cc1 (repeat unit)
148.90 | *Oc1ccc(S(=O)(=O)c2ccc(Oc3ccc(C(c4ccc(*)c([Si](C)(C)C)c4)(C(F)(F)F)C(F)(F)F)cc3[Si](C)(C)C)cc2[Si](C)(C)C)c([Si](C)(C)C)c1 (repeat unit)
116.00 | *Oc1ccc(CNC(=O)CCCCC(=O)NCc2ccc(OC3COC4C(*)COC34)cc2)cc1 (repeat unit)
232.00 | *Oc1ccc(Oc2ccc(C(=O)Nc3ccc(Oc4ccc(-c5ccc(Oc6ccc(NC(=O)c7ccc(*)cc7)cc6)cc5)cc4)cc3)cc2)cc1-c1ccccc1 (repeat unit)
-20.00 | *CC(*)c1ccc(COCCCCCC)cc1 (repeat unit)
232.00 | *c1ccc(Oc2ccc(C(C)(c3ccccc3)c3ccc(Oc4ccc(-c5nc(-c6ccccn6)nnc5*)cc4)cc3)cc2)cc1 (repeat unit)
-52.50 | *CCCOC(=O)CCCCCCC(=O)O* (repeat unit)
388.00 | *c1ccc(C2(c3ccc(N4C(=O)c5ccc(-c6ccc7c(c6)C(=O)N(*)C7=O)cc5C4=O)cc3)c3ccccc3-c3ccccc32)cc1 (repeat unit)
40.00 | *CC(*)C(=O)OCCCCOC(=O)c1ccc(OC(=O)c2ccc(C#N)cc2)cc1 (repeat unit)
199.00 | *c1ccc(Oc2cccc(Oc3ccc(N4C(=O)c5ccc(Oc6ccc(Oc7ccc8c(c7)C(=O)N(*)C8=O)cc6)cc5C4=O)cc3)c2)cc1 (repeat unit)
249.50 ± 18 | *c1ccc(Oc2ccc(C(c3ccc(Oc4ccc(N5C(=O)c6ccc(-c7ccc8c(c7)C(=O)N(*)C8=O)cc6C5=O)cc4)cc3)(C(F)(F)F)C(F)(F)F)cc2)cc1 (repeat unit)
283.40 | *Nc1ccc(NC(=O)c2cc(C(*)=O)c(C(=O)O)cc2C(=O)O)cc1 (repeat unit)
105.00 | *c1ccc(Cc2ccc(N3C(=O)C(C)C(SCCOCCSC4C(=O)N(c5ccc(Cc6ccc(N7C(=O)CC(C)(SCCOCCSC8(C)CC(=O)N(*)C8=O)C7=O)cc6)cc5)C(=O)C4C)C3=O)cc2)cc1 (repeat unit)
96.00 | *CCCCCCCCNC(=O)c1ccc(C(=O)N*)c(Oc2ccccc2)c1 (repeat unit)

SMILES | glass transition temperature [°C]
*CC(*)c1ccc(Cl)cc1 (repeat unit) [Poly(4-chlorostyrene)] | 119.92 ± 5.3
*CCOCCOC(=O)CCC(=O)O* (repeat unit) | -38.20
*CCCCOc1ccc(C(=O)Nc2cccc(P(=O)(c3ccccc3)c3cccc(NC(=O)c4ccc(O*)cc4)c3)c2)cc1 (repeat unit) | 191.00
*OC1C(CO)OC(*)C(N)C1O (repeat unit) | 194.00
*C[Si](*)(CCCCC)CCCCC (repeat unit) | -55.00
*/C(C)=C(/*)SCC (repeat unit) | 160.00
*CC(*)c1ccccc1COCC (repeat unit) | 74.00
*C(=O)Nc1ccc(-c2cc(-c3ccccc3)cc(-c3ccc(NC(=O)c4ccc5c(c4)C(=O)N(c4cccc(P(=O)(c6ccccc6)c6cccc(N7C(=O)c8ccc(*)cc8C7=O)c6)c4)C5=O)cc3)n2)cc1 (repeat unit) | 258.00
*CC(*)N1CCCCCC1=O (repeat unit) | 174.60
*CC(*)c1cccc2ccccc12 (repeat unit) | 160.00
